The source of these data is PubChem BioAssay AID179 (DTP/NCI, 2004).

The test system of this assay is CEM cells HIV-1 protection, formazan growth assay. As to the kind of experiment: NCI AIDS Antiviral Assay. Conditions: for IC50: measured here: growth of uninfected CEM cells. A digest of the protocol: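 Human CEM cells, uninfected and HIV-1-infected, exposed to five drug concentrations; growth measured by soluble formazan assay and scored as percent protection from infection, with protecting compounds retested.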

Values joined by “and” are separate entries in the source; they are usually repeats but may differ in a detail not shown here. Identical values can stand only once. Active and inactive are the calls of the source.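 The calls were made as follows: active = compounds giving half or more protection of infected cells from virus-caused growth loss, again on retest; inactive = the rest.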 Some results are limits rather than exact numbers.

By EC50 is commonly meant the midpoint of the concentration-response curve. The IC50 is the concentration that inhibits the measured activity by half. A higher IC50 goes with weaker potency in that assay.

Consider `O=C1C2C3C=C4c5ccccc5N(c5ccccc5)C4(C2C(=O)N1c1ccc(Cl)cc1)[C@H]1C(=O)N(c2ccc(Cl)cc2)C(=O)[C@@H]31` (stereo not given in full), for which the EC50 was more than 3.16 µM and the IC50 is more than 3.16 µM. Turning to `Cc1cccc(C(C)C)c1NC(=O)C(=O)C(C(=O)c1ccccc1F)C1OC(=O)c2ccccc21` (stereo not given), the EC50 was more than 200 µM and the IC50 was 15.8 µM. Regarding `Cc1ccc(Nc2c3c(c(C#N)c4nc5ccccc5n24)CCCC3)cc1`, the EC50 was more than 200 µM and the IC50 came to 10.7 µM.

Turning to `O=[N+]([O-])C(/C=C(\Cl)[N+](=O)[O-])=C(N1CCCCC1)N1CCCCC1`, the EC50 was more than 200 µM and the IC50 is 75.9 µM. For the compound `Cc1ccc(-c2c(C#N)c(-c3ccc([N+](=O)[O-])cc3)c(C#N)c(=O)n2NS(=O)(=O)c2ccc(C)cc2)cc1`, the EC50 is more than 200 µM and the IC50 came out at 12 µM. As for `O=C(O)C(SC1=NNC2(C(=O)N1)c1ccccc1-c1ccccc12)SC1=NNC2(C(=O)N1)c1ccccc1-c1ccccc12`, the outcome was inactive. In the case of `COc1ccc(/C=C2\NC(=S)NC2=O)cc1`, the EC50 was more than 200 µM and the IC50 was 151 µM. As for `CCOC(=O)c1[nH]cnc1/N=N/N(C)N`, the EC50 is more than 200 µM and the IC50 came out at 21.4 µM. The corresponding values for `Cc1cc(O)c2c(c1)C(C1OC(CO)C(O)C(O)C1O)c1cc(O)cc(O)c1C2=O` (stereo not given) are more than 200 µM and more than 200 µM. Turning to `Cn1c(=O)cc(NCc2ccc(Cl)cc2)[nH]c1=O`, the EC50 was more than 200 µM and the half-inhibitory concentration (IC50) was 195 µM. On to `N#Cc1nc(/C=C/c2ccccc2)oc1N`, for which the EC50 was more than 501 µM and the IC50 is 112 µM. In the case of `O=[N+]([O-])/C(Cl)=C/C(=C1/Nc2ccccc2O1)[N+](=O)[O-]`, the EC50 was more than 200 µM and the IC50 amounted to 30.2 µM. Consider `CCCCCCC(/C=N/O)C(C)(O)CCC` (stereo not given), for which the EC50 is more than 112 µM and the IC50 is more than 112 µM.

For `CO/C(N)=C(\C#N)N=Cc1ccccc1`, the EC50 is more than 200 µM and the IC50 was found to be 105 µM. For `CCn1ccnc1.CCn1ccnc1.O=C([O-])CC(O)C(=O)[O-].[Pt+2]` (stereo not given), the EC50 is more than 200 µM and the IC50 is more than 200 µM. As to `CC1=C2CCCCCC2(O)OC1=O` (stereo not given), the EC50 is more than 646 µM and the IC50 is more than 646 µM. Consider `CC(C(N)=O)N(C)C(=O)c1cc2ccccc2[n+](Cc2ccccc2)c1` (stereo not given), for which the outcome was inactive. On to `O=c1c2c(c1=O)C1(SCCCS1)c1cc(Cl)ccc1O2`, for which the EC50 was more than 200 µM and the IC50 is more than 200 µM. For `CSc1nc(C)cc(Nc2ccc(O)c(CN3CCOCC3)c2)n1`, the EC50 is more than 24 µM and the IC50 was more than 24 µM.

`N#CC(C#N)=Cc1cc(O)c(O)c(O)c1`: the EC50 was more than 200 µM and the IC50 stood at 31.6 µM. On to `COC1/C=C/OC2(C)Oc3c(C)c(O)c4c(O)c(c(/C=N/N5CCN(Cc6cccc(C(F)(F)F)c6)CC5)c(O)c4c3C2=O)NC(=O)C(C)=C/C=C/C(C)C(O)C(C)C(O)C(C)C(OC(C)=O)C1C` (stereo not given), for which the EC50 is more than 200 µM and the IC50 was 6.92 µM. For `COc1cc(/C=C/C(=N\NC(N)=S)c2sc(NNC(C)=O)nc2C)ccc1O`, the EC50 was more than 77.6 µM and the IC50 worked out at 69.2 µM. Consider `C=C(CN(C)C)C1(c2ccccc2)CC2(CCCC2)C(=O)O1` (stereo not given), for which the EC50 was more than 200 µM and the IC50 came out at 38 µM.

For the compound `COc1cc2c3c(c1)C(O)CC[N+]3(C)CCC2` (stereo not given), the EC50 is more than 200 µM and the IC50 is more than 200 µM.

For `CN1c2ccccc2Sc2c1n[nH]c2-c1ccccc1`, the EC50 was more than 49 µM and the IC50 amounted to 20.9 µM. With `COC(=O)C12C3C4C1C1C2C3C41C(=O)O` (stereo not given), the EC50 is more than 1200 µM and the IC50 is more than 1200 µM. Consider `O=C1c2c(O)cc(O)cc2O[C@@]12c1c(cc(O)c3c1O[C@H](c1ccc(O)cc1)[C@@H](O)C3)O[C@@H]2c1ccc(O)cc1`, for which the EC50 was 2.57 µM and the IC50 was found to be 50.1 µM. With `Cc1cn2cc(-c3ccncc3)nc2s1`, the EC50 is more than 209 µM and the IC50 was found to be 112 µM. On to `O=c1cc(O)c2c(O)cc(O)cc2o1`, for which the EC50 is more than 200 µM and the IC50 is more than 200 µM. Turning to `Cc1nc2ccccc2cc1C[N+]12CN3CN(CN(C3)C1)C2`, the result was inactive. In the case of `CC(C)C1CCC(=O)CC1CCCCC1CC(=O)CC1O[Si](C)(C)C(C)(C)C` (stereo not given), the EC50 is more than 200 µM and the IC50 is 7.24 µM. The corresponding values for `Cc1[nH]n(C2=NCCN2)c(=O)c1C` are more than 200 µM and more than 200 µM.

On to `CC1(c2cccc(C3CCC4(C=CC3=O)OCCO4)c2)OCCO1` (stereo not given), for which the EC50 is more than 200 µM and the IC50 was 1.91 µM. `N#CN1C2CCC1CC(=O)C2`: the EC50 is 67.6 µM and the IC50 stood at 129 µM. Take `O=C(NC/C(Br)=C/Br)Nc1cccc2ccccc12`: the EC50 is 148 µM and the IC50 is more than 200 µM.

Regarding `CCCN1CN(C(C(=O)N[C@@H]2C(=O)N3C(C(=O)O)=C(C)CSC23)c2ccccc2)CSC1=S` (stereo not given in full), the EC50 is more than 355 µM and the IC50 is 204 µM.

Consider `C=C1[C@H](OC(=O)C(C)C)[C@@H](OC(C)=O)[C@@H](OC(C)=O)C(C)(C)[C@@H]2O[C@H]2[C@@H](C)C(=O)[C@@]2(OC(C)=O)C[C@@](C)(OC(C)=O)[C@H](OC(C)=O)[C@@H]2[C@H]1OC(C)=O`, for which the EC50 is more than 200 µM and the IC50 is more than 200 µM.

For the compound `CCc1cccc(C(C)C)c1NC(=O)C(=O)CC(=O)c1sc(Nc2c(CC)cccc2C(C)(C)C)nc1C`, the EC50 was more than 200 µM and the IC50 was found to be 60.3 µM. On the same counts, the results for `COC(=O)Cc1nn2c(nc1=O)sc1ccc3ccccc3c12` are more than 69.2 µM and more than 69.2 µM.

On to `Cc1ccc(C(=O)N(C2CCCCC2)C2CCCCC2)cc1N=NN(C)C`, for which the EC50 is more than 19.5 µM and the IC50 is more than 19.5 µM.

With `NC(=O)c1c(N)ncn1C1OC(CO)C(F)C1O` (stereo not given), the EC50 was more than 200 µM and the IC50 was more than 200 µM. On to `CCOC(=O)c1sc2[n+](c1C)C(=O)/C(=C/c1cc(OC)c(OC)c(OC)c1)S2`, for which the EC50 is more than 200 µM and the IC50 was 12.9 µM. The corresponding values for `CC(C)OP(=O)(CN(C)/C(F)=N\C(F)(F)F)OC(C)C` are more than 200 µM and more than 200 µM.

Regarding `O=C1C2=C(Nc3ccccc3N2)OC1c1ccncc1` (stereo not given), the EC50 is more than 38 µM and the IC50 is more than 38 µM. `O=c1c(OC2OC(CO)C(O)C(O)C2OC2OCC(O)(CO)C2O)c(-c2ccc(O)cc2)oc2cc(O)cc(O)c12` (stereo not given): the EC50 is more than 42.7 µM and the IC50 was more than 42.7 µM. Take `CCCn1c2c(c3ccccc3c1=O)C(=O)c1ccccc1-2`: the EC50 was more than 18.2 µM and the IC50 is more than 18.2 µM.

Regarding `CNC1C(OC2C(OC3C(O)C(O)C(N=C(N)N)C(O)C3N=C(N)N)OC(C)C2(O)CO)OC(CO)C(O)C1O` (stereo not given), the result was inactive.

Regarding `CCC(C)C(NC(=O)C(CCCCN)NC(=O)CNC(=O)C(NC(=O)C(NC(=O)C(NC(=O)C(Cc1ccccc1)NC(=O)C(C)NC(=O)C(CCCNC(=N)N)NC(=O)CNC(=O)C1CCCN1C(=O)CNC(=O)C(CCCNC(=N)N)NC(=O)C(CCC(N)=O)NC(=O)C(NC(=O)C(CCCNC(=N)N)NC(=O)C(NC(=O)C(CO)NC(=O)C(CCCCN)NC(=O)C(CCCNC(=N)N)NC(=O)C(NC(=O)C(CC(N)=O)NC(=O)C(N)CC(=O)NC1OC(CO)C(O)C(O)C1NC(C)=O)C(C)O)C(C)CC)C(C)CC)C(C)C)C(C)O)C(C)CC)C(=O)NCC(N)=O` (stereo not given), the EC50 was more than 50.1 µM and the IC50 was more than 50.1 µM. In the case of `Cc1ccc(S(=O)(=O)NC(=O)NC23CC4CC(CC(F)(C4)C2)C3)cc1`, the EC50 is more than 676 µM and the IC50 came out at 339 µM.

Turning to `[Cl][Cu][Cl]`, the EC50 is more than 200 µM and the IC50 worked out at 182 µM. Regarding `COC(=O)c1ccccc1SSc1ccccc1C(=O)OC`, the EC50 is more than 200 µM and the IC50 turned out to be 18.6 µM. Take `CC(C)=NNC(=O)CC(=O)N(C(=O)c1ccccc1Cl)c1ccc(C)cc1`: the EC50 was more than 468 µM and the IC50 is more than 468 µM. On to `CCc1cccc(CC)c1NC(=O)C1=C(C)NC(C)=C(C(=O)Nc2c(CC)cccc2CC)C1c1ccc([N+](=O)[O-])cc1`, for which the EC50 was more than 44.7 µM and the IC50 is more than 44.7 µM. For the compound `C(=N\NC1=NCCN1)/c1ccc(-c2cn3cc(/C=N/NC4=NCCN4)ccc3n2)cc1`, the EC50 was more than 53.7 µM and the IC50 was found to be 3.72 µM.

As to `CCOC(OCC)(OCC)C(Br)CC` (stereo not given), the EC50 was more than 933 µM and the IC50 was more than 933 µM. As to `CN/N=C(/Cc1occc(=O)c1O)C(=O)Nc1ccccc1C`, the EC50 is more than 794 µM and the IC50 stood at 724 µM.

For the compound `O=C(O)c1ccccc1C(c1cc(Br)c(O)c(Br)c1)c1cc(Br)c(O)c(Br)c1`, the result was inactive. As for `CNc1ncnc2c1ncn2C1OC(CO)CC1F` (stereo not given), the EC50 is 158 µM and the IC50 is more than 200 µM. As for `C/C=C(\C)C(=O)c1c(O)cc(O)c2ccc(=O)oc12`, the EC50 is more than 200 µM and the IC50 was determined as 112 µM.

With `CCN(CCCN(CC)C(=O)N[C@@H](Cc1ccccc1)C(=O)NC)C(=O)N[C@@H](Cc1ccccc1)C(=O)NC`, the EC50 is more than 200 µM and the IC50 was more than 200 µM.

Take `CCCCCCCCCCCCCCCCCCOCC(O)CO` (stereo not given): the EC50 is more than 3.02 µM and the IC50 was more than 3.02 µM. With `Cc1cn([C@H]2CS[C@@H](CO)CO2)c(=O)[nH]c1=O`, the result was inactive. In the case of `Cc1ccc(/C=N/n2c(Cc3ccccc3)n[nH]c2=O)cc1`, the EC50 is more than 200 µM and the IC50 is more than 200 µM. As to `O=c1[nH]nc(Cc2ccccc2)n1C1CC1`, the EC50 was more than 200 µM and the IC50 was more than 200 µM.

In the case of `COC(=O)[C@@H](O)[C@]1(C(=O)OC)C2O[C@@H](OC)[C@@H]1CCCCCC[C@H]2O`, the EC50 was more than 200 µM and the IC50 was more than 200 µM.

`COc1nc2c(c(=O)n1C)NC(C(O)C(O)CO)C=N2` (stereo not given): the EC50 was 182 µM and 174 µM; the IC50 is more than 200 µM.

Turning to `CCN(CC)C(=O)Cn1c2c(c3ccccc31)CCCC2`, the EC50 is more than 200 µM and the concentration for half-maximal inhibition (IC50) was found to be 138 µM. Take `COc1ccc(/C=C/c2onc3c(=O)n(C)nc(-c4ccccc4)c23)cc1`: the EC50 was more than 20 µM and the IC50 is more than 20 µM.
